For this assay, the system named is pro-inflammatory patterns typical of IBD. Put plainly: depression of pro-inflammatory patterns typical of IBD. The conditions noted are these: administered alone. From the text: According to an aspect of the invention, the casein (ii) contained in the mixture (M), together with (i), (iii) and (iv) (according to any of the described embodiments), is a micellar casein, i.e. in the native form thereof.

With casein, the “pro-inflammatory patterns typical of IBD” value is “capable of depressing pro-inflammatory patterns typical of IBD”.

Values taken from patent US20220218776A1, “COMPOSITION FOR USE IN A METHOD FOR PREVENTION OR TREATMENT OF MALTNUTRITION IN A SUBJECT SUFFERING FROM A CHRONIC INFLAMMATORY BOWEL DISEASES” (SOFAR S.P.A., priority 2019, published 2022).
